Earlier results as cited in US7144595B2, “Prepared foods containing triglyceride-recrystallized non-esterified phytosterols” (Brandeis University, priority 2001, dated 2006).

Test system: humans

| Compound | lowering of serum cholesterol (12–18 g per day in divided doses, males with atherosclerosis (Faquhar 1956)) | decrease of plasma cholesterol level (9–18 grams per day, coarse powdered form) |
| --- | --- | --- |
| CC[C@H](CC[C@@H](C)[C@H]1CC[C@H]2[C@@H]3CC=C4C[C@@H](O)CC[C@]4(C)[C@H]3CC[C@]12C)C(C)C [beta sitosterol] | 15–20% | – |
| CC[C@H](CC[C@@H](C)[C@H]1CC[C@H]2[C@@H]3CC=C4C[C@@H](O)CC[C@]4(C)[C@H]3CC[C@]12C)C(C)C [sitosterol] | – | approximately 15% |
